Measurements as given in paper PMC4482062 (Nucleic Acids Research, 2015).
Several values for one entry are separate records, joined by “and”; a condition that tells them apart may be missing. Equal values may be shown once.

Tests used:
CmoB Y200A mutant = target: T1, CmoB Y200A mutant (Escherichia coli, UniProt P76291, Y200A); test: Isothermal titration calorimetry, Y200A mutant CmoB; assay type: binding
T1 construct: vector LIC-pET30a) (cleaved yes); made in house; host or cells: Escherichia coli BL21 (DE3)
T1 sequence (P76291 whole entry Y200A): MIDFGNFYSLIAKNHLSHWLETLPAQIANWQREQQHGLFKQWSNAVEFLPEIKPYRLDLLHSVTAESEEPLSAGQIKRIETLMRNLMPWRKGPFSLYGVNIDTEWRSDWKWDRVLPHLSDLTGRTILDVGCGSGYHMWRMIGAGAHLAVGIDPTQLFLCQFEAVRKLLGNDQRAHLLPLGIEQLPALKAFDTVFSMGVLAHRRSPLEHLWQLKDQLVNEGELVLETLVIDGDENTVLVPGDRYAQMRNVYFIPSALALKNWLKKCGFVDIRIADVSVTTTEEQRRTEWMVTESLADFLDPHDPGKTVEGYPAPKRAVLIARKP
Protocol: (§1) CmoB was extensively dialyzed for 24 h against binding buffer (20-mM HEPES, pH 7.5) using a dialysis cassette with 10-kDa MWCO (Pierce). Lyophilized Cx-SAM was dissolved in the binding buffer at a final concentration of 1.3 mM. SAM was purchased from Sigma and dissolved in binding buffer at a final concentration of 10 mM. Prior to use, all titration samples were centrifuged for 20 min at 4°C. Isothermal titration calorimetry (ITC) experiments were performed at 15°C using an auto-ITC200 (MicroCal, LLC, Northhampton, MA, USA) in which the reaction cell (202.8 μl) containing CmoB (50 μM and 370 μM for Cx-SAM and SAM, respectively) was titrated with 40 × 1-μl injections of 1.3-mM Cx-SAM or 6.7-mM SAM with an equilibration time of 180 s. Raw injection traces were integrated over time, normalized per mol of ligand injected and corrected for the heat of dilution obtained from the plateau of a titration curve. Titration data were analyzed using a single-site model in Origin (version X) and Igor Pro 5/6. […] Based on the chemical synthesis, the Cx-SAM utilized in the binding assay is a racemic mixture, of which only the S-isomer is capable of acting as a substrate/ligand for CmoB. Therefore, the stoichiometry was fixed at 1:1 and the activity of the ligand was introduced as a fitting parameter for Cx-SAM.

wild-type CmoB [1] = target: T2, wild-type CmoB (Escherichia coli, UniProt P76291); test: In vitro LC-MS-based alkyl transfer assay, wild-type CmoB; assay type: biochemical
T2 construct: vector LIC-pET30a) (cleaved yes); made in house; host or cells: Escherichia coli BL21 (DE3)
Protocol: The assay solution for SAM-dependent mo5U formation contained 10-mM Tris-HCl (pH 8.0), 4-mM MgCl2, 0.2-mM SAM and 20–25 μg (∼20 μM) of total tRNA prepared from cmoB-mutant E. coli cells in 50 μl. Reaction conditions for Cx-SAM-dependent cmo5U formation assay were identical, with the exception that10-μM Cx-SAM was used in place of SAM. Assays were initiated by addition of 0.1–2-μM CmoB to the above mixtures and subsequently incubated at the room temperature. The reaction was terminated by the addition of 0.1-mg/ml P1 nuclease, followed by incubation at 60°C for at least 1 h. […] Hydrolyzed nucleotides were directly applied to HPLC without further processing for LC-MS analysis as described above.

wild-type CmoB [2] = target: T2, wild-type CmoB; test: Isothermal titration calorimetry, wild-type CmoB; assay type: binding
Protocol: as §1

CmoB K91A mutant = target: T3, CmoB K91A mutant (Escherichia coli, UniProt P76291, K91A); test: Isothermal titration calorimetry, K91A mutant CmoB; assay type: binding; settings: K91A
T3 construct: vector LIC-pET30a) (cleaved yes); made in house; host or cells: Escherichia coli BL21 (DE3)
T3 sequence (P76291 whole entry K91A): as the sequence (P76291 whole entry Y200A) above, with K91A, A200Y counted along it
Protocol: as §1
The titration curve was analyzed using macroscopic binding constants and enthalpies describing binding of n-molecules of Cx-SAM to tetrameric mutant CmoB. Initially, the titration curve was analyzed with all possible values of n (=1~4). […] Therefore, the titration curve was analyzed using three sets of binding constants and enthalpies (Supplementary Table 2). The fitted values of the macroscopic binding constants were compared to those expected for a case of non-cooperative binding. For both cooperative and non-cooperative binding, K1 is given by 4Ksite where 4 accounts for the number of ligand binding sites in teterameric CmoB (i.e., statistical factor) and Ksite describes the “intrinsic” affinity of each site. Then, Ksite=3.6x10^4 M^-1. The fitted value of K2 is ~ 8.4-fold higher than that calculated for the case of non-cooperative binding (6Ksite^2=7.7x10^9 M^-2), indicating positive cooperativity involved in binding of the second Cx-SAM. Since the population of K91A with three Cx-SAMs bound is negligible, binding of the third Cx-SAM is deduced to be negatively cooperative.
A possible molecular explanation for such heterogeneous cooperativity involved in the interaction between K91A and Cx-SAM is the presence of (at least) two different types of interface between the subunits in tetrameric K91A which is consistent with the structural model of the CmoB tetramer. In this model (Supplementary Figure 9), the four ligand binding sites are initially equivalent, but binding of the first ligand to any of these four sites differentially affects (increases and decreases) the affinities of the neighboring sites for the second ligand through the different subunit interfaces. This model is a variation of the classical “square” model used in the analysis of the interaction between hemoglobin and oxygen(2) and provides a molecular description of the fitted macroscopic binding constants in terms of the intrinsic affinity (Ksite) and two types of cooperativity (ω+ and ω-): K1=4Ksite; K2=2Ksite^2(1+ω++ω-); K4=Ksite^4(ω+ω-)^2. Then, Ksite=3.6x10^4 M^-1, ω+=23.8, and ω-=0.4. The value of ω is equivalent to a fold-change in the Cx-SAM affinity of a binding site in tetrameric K91A when its neighboring site is already occupied by Cx-SAM.
^aIn this model, the interaction is described by a set of binding events where n-molecules of Cx-SAM bind tetrameric CmoB (K91A) with the corresponding binding constants (Kn) and enthalpies (∆Hn°). Initially, the titration curve was analyzed by this model including all possible values of n (=1~4). […] Therefore, the titration curve was analyzed using three sets of binding constants and enthalpies.

CmoB R315A mutant = target: T4, CmoB R315A mutant (Escherichia coli, UniProt P76291, R315A); test: Isothermal titration calorimetry, R315A mutant CmoB; assay type: binding
T4 construct: vector LIC-pET30a) (cleaved yes); made in house; host or cells: Escherichia coli BL21 (DE3)
T4 sequence (P76291 whole entry R315A): as the sequence (P76291 whole entry Y200A) above, with A200Y, R315A counted along it
Protocol: as §1

[3] = target: the molecule itself; test: AUC; sedimentation velocity, g(s*) distribution fitted to a single-species model; with or without Cx-SAM or SAM

Molecule: C[S+](CC[C@H](N)C(=O)[O-])C[C@H]1O[C@@H](n2cnc3c(N)ncnc32)[C@H](O)[C@@H]1O (some centres unmarked) [SAM, reference compound]
- Kd (CmoB Y200A mutant): > 119 µM
- K (binding constant) (CmoB Y200A mutant; ITC, 15°C, single-site model, Y200A): N.D.^e (< 8.4 × 10^3) M^−1
- ΔG° (CmoB Y200A mutant; ΔG° = −RT lnK, Y200A): >-5.1 kcal/mol
- Time to observed mo5U formation (wild-type CmoB [1]; 2-μM wild-type CmoB, 0.2-mM SAM as alkyl donor): 5 h
- Time to detected trace mo5U with both donors present (wild-type CmoB [1]; 10-μM Cx-SAM and 2-mM SAM): 2 h
- ΔH° (wild-type CmoB [2]; ITC): -0.6 ± 0.1 kcal/mol
- K (binding constant) (wild-type CmoB [2]; ITC, 15°C, single-site model): 4.8 ± 2.0 × 10^3 M^−1 and 4.8 ± 2.0 x 10^3 M^−1
- TΔS° (wild-type CmoB [2]; ITC, text): 4.23 ± 0.27 kcal/mol
- ΔG° (wild-type CmoB [2]; ITC, text): -4.85 ± 0.24 kcal/mol
- ΔH° (wild-type CmoB [2]; ITC, text): -0.62 ± 0.12 kcal/mol
- ΔS° (wild-type CmoB [2]; ITC, text): 14.7 ± 0.9 cal·mol^−1·deg^−1
- Kd (wild-type CmoB [2]; ITC): 210 ± 90 µM
- Kd (wild-type CmoB [2]; ITC, 15°C): 200 µM and 208 µM
- ΔG° (wild-type CmoB [2]; ΔG° = −RT lnK): -4.9 ± 0.2 kcal/mol
- ΔS° (wild-type CmoB [2]; ΔS° = (ΔH°−ΔG°)/T): 14.7 ± 0.9 cal/mol/deg
- K (binding constant) (CmoB K91A mutant; ITC, 15°C, single-site model): 9.1 ± 0.2 × 10^4 M^−1 and 9.1 ± 0.2 x 10^4 M^−1
- ΔH° (CmoB K91A mutant; ITC): -6.4 ± 0.1 kcal/mol
- Kd (CmoB K91A mutant; Kd, ITC, 15°C): 11 ± 0.2 µM
- ΔG° (CmoB K91A mutant; ΔG° = −RT lnK): -6.5 ± 0.1 kcal/mol
- ΔS° (CmoB K91A mutant; ΔS° = (ΔH°−ΔG°)/T): 0.4 ± 0.1 cal/mol/deg
- Kd (CmoB R315A mutant): 140 ± 7.3 µM
- K (binding constant) (CmoB R315A mutant; ITC, 15°C, single-site model, R315A): 7.1 ± 0.4 x 10^3 M^−1
- ΔH° (CmoB R315A mutant; ITC, R315A): -11.1 ± 0.2 kcal/mol
- ΔG° (CmoB R315A mutant; ΔG° = −RT lnK, R315A): -5.1 ± 0.1 kcal/mol
- ΔS° (CmoB R315A mutant; ΔS° = (ΔH°−ΔG°)/T, R315A): −21.0 ± 0.8 cal/mol/deg

B1: CmoB carboxymethyl transferase (enzyme, Escherichia coli (BL21 genomic DNA))
chain: MIDFGNFYSLIAKNHLSHWLETLPAQIANWQREQQHGLFKQWSNAVEFLPEIKPYRLDLLHSVTAESEEPLSAGQIKRIETLMRNLMPWRKGPFSLYGVNIDTEWRSDWKWDRVLPHLSDLTGRTILDVGCGSGYHMWRMIGAGAHLAVGIDPTQLFLCQFEAVRKLLGNDQRAHLLPLGIEQLPALKAFDTVFSMGVLYHRRSPLEHLWQLKDQLVNEGELVLETLVIDGDENTVLVPGDRYAQMRNVYFIPSALALKNWLKKCGFVDIRIADVSVTTTEEQRRTEWMVTESLADFLDPHDPGKTVEGYPAPKRAVLIARKP
notes: CmoB of Escherichia coli, cmoB gene amplified from genomic DNA of E. coli BL21 and cloned into LIC-pET30a; calculated monomer mass 37.01 kD; 319-323 C-alphas aligned per protomer in the structures; A selenomethionine-substituted form (made in E. coli B834, purified the same way) gave the experimental phases; also called wild-type CmoB; source: E. coli BL21 (DE3), purified (Ni-agarose, thrombin …)
- stoichiometry N [3]: 4
